Experiments:
Format in all cases: biochemical
Hna [1] = target: T1, Hna (Sinorhizobium meliloti, UniProt Q92XN4); assay: ssDNA cleavage time courses by capillary electrophoresis, […] ATP; details: 10 mM MgCl2; pH 7.5; 37 °C; nuclease read-out, ATP binds helicase domain
T1 construct: gene SMa2245; full length, 845 residues; recombinant E. coli (codon-optimised); N-terminal 6xHis-MBP-TEV tags cleaved with TEV; monomer, ATP-stabilised homodimer

Hna [2] = target: T2, Hna (Sinorhizobium meliloti, UniProt Q92XN4, P712A/D713A/E727A); assay: malachite green phosphate release assay; details: ssDNA present; Mg2+; pH 7.5; 37 °C
T2 construct: gene SMa2245; full length, 845 residues; recombinant E. coli (codon-optimised); N-terminal 6xHis-MBP-TEV tags cleaved with TEV; monomer, ATP-stabilised homodimer
T2 sequence (Q92XN4 entry or part of it P712A/D713A/E727A): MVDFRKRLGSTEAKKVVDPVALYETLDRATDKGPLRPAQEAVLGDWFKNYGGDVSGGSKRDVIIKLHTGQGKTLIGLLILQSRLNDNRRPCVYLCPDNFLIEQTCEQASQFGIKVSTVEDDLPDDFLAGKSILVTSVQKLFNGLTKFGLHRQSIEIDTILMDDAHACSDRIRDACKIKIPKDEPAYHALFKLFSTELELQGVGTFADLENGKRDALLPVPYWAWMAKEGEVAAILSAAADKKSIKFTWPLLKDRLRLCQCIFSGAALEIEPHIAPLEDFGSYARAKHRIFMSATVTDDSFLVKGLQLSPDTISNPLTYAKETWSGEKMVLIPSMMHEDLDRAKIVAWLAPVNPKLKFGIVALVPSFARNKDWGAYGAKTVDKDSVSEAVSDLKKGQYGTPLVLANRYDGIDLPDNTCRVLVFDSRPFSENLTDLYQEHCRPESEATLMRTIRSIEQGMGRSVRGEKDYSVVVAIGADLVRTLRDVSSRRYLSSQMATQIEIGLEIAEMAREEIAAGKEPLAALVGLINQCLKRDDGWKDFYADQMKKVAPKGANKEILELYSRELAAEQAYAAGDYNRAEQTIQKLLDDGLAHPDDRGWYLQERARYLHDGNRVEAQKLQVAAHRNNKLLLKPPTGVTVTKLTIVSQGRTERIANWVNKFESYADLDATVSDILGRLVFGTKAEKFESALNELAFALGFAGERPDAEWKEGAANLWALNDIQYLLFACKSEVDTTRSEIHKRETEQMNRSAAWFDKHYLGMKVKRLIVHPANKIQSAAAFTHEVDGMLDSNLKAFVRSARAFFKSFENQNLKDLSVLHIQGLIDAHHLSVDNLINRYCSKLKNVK

Hna [3] = target: T1, Hna; assay: malachite green phosphate release assay; details: 20 µM ATP; 10 nM ssDNA; 10 mM MgCl2; pH 7.5; 37 °C

T1 sequence (Q92XN4 entry or part of it): as the sequence (Q92XN4 entry or part of it P712A/D713A/E727A) above, with A712P, A713D, A727E counted along it

## Nc1ncnc2c1ncn2[C@@H]1O[C@H](COP(=O)(O)OP(=O)(O)OP(=O)(O)O)[C@@H](O)[C@H]1O [ATP]
Hna [1]
  inhibition of ssDNA cleavage: significant reduction in ssDNA cleavage across all concentrations of ATP tested
Hna [2]
  ATPase activity (significant increase): significant increase in ATP hydrolysis by PDE Hna
Hna [3]
  malachite green phosphate release assay: Hna possesses minimal innate ATPase activity that is significantly enhanced by the inclusion of ssDNA

Source: PMC13381803, “Phage-encoded factor stimulates DNA degradation by the Hna anti-phage defense system” (Nature Communications, 2026)
